According to patent US20120225062A1 (priority 2011, published 2012):

Columns and labels:
[1] = molecular target: Pim 2 (Homo sapiens, UniProt Q9P1W9); assay: Pim 2 AlphaScreen assay (high ATP)
[2] = molecular target: Pim 3 (Homo sapiens, UniProt Q86V86); assay: Pim 3 AlphaScreen assay (high ATP)
Procedure: The activity of Pim 1, Pim 2, & Pim 3 is measured using a homogeneous bead based system quantifying the amount of phosphorylated peptide substrate resulting from kinase-catalyzed phosphoryl transfer to a peptide substrate. Compounds to be tested are dissolved in 100% DMSO and directly distributed to a white 384-well plate at 0.25 μl per well. […] This is followed by the addition of 5 μl/well of Pim 1, Pim 2 or Pim 3 kinase in assay buffer (concentrations described below). Final assay concentrations (described below) are in 2.5% DMSO. The reactions are performed for ˜2 hours, then stopped by the addition of 10 μl of 0.75 μg/ml anti-phospho Ser/Thr antibody (Cell Signaling), 10 μg/ml Protein A AlphaScreen beads (Perkin Elmer), and 10 μg/ml streptavidin coated AlphaScreen beads in stop/detection buffer (50 mM EDTA, 95 mM Tris, pH=7.5, 0.01% Tween-20). The stopped reactions are incubated overnight in the dark. The phosphorylated peptide is detected via an oxygen anion initiated chemiluminescence/fluorescence cascade using the Envision plate reader (Perkin Elmer).

[3] = molecular target: Pim 1 (Homo sapiens, UniProt P11309); assay: Pim 1 AlphaScreen assay (high ATP)
[4] = system: KMS11 (human myeloma cell line); assay: Cell Proliferation Assay (CellTiter-Glo, 3 days); format: cell-based; settings: KMS-11, 72 h, KMS11-luc cells
Outline: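 KMS11 myeloma cells, 2000 per well in IMDM with 10% FBS, exposed to compound for 3 days at 37° C. Viability read by CellTiter-Glo luminescence; EC50 derived.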

Chain of Pim 1 (P11309 whole entry): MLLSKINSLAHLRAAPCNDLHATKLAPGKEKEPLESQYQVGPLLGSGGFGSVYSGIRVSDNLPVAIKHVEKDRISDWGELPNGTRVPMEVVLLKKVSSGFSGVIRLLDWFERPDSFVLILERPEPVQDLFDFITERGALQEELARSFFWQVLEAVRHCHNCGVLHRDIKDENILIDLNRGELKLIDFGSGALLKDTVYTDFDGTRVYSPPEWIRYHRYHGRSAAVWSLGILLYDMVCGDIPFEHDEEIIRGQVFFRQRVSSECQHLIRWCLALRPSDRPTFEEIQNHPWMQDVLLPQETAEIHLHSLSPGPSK
Chain of Pim 2 (Q9P1W9 whole entry): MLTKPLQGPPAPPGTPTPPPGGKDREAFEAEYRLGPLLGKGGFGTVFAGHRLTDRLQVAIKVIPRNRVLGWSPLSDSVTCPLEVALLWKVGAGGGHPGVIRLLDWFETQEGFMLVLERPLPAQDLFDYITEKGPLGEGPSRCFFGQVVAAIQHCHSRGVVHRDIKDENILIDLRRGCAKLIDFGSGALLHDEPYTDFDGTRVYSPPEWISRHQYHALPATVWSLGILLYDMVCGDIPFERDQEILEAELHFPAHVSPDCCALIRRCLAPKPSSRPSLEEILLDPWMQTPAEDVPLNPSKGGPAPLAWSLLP

C[C@@H]1C[C@H](N)C[C@H](c2ccncc2NC(=O)c2ccc(F)c(-c3c(F)cc(C4(C#N)CCOCC4)cc3F)n2)C1 [Example 170, N-(4-((1R,3S,5S)-3-amino-5-methylcyclohexyl)pyridin-3-yl)-6-(4-(4-cyanotetrahydro-2H-pyran-4-yl)-2,6-difluorophenyl)-5-fluoropicolinamide]
IC50 [1]: 2.83 nM
IC50 [2]: 4.54 nM
IC50 [3]: 0.03 nM
EC50 [4]: 84 nM

C[C@@H]1C[C@H](N)C[C@H](c2ccncc2NC(=O)c2ccc(F)c(-c3c(F)cc([S@@+](C)[O-])cc3F)n2)C1 [Example 228, N-(4-((1R,3S,5S)-3-amino-5-methylcyclohexyl)pyridin-3-yl)-6-(2,6-difluoro-4-((R)-methylsulfinyl)phenyl)-5-fluoropicolinamide]
IC50 [1]: 6.26 nM
IC50 [2]: 7.85 nM
IC50 [3]: 0.14 nM
EC50 [4]: 94 nM

C[C@@H]1C[C@H](N)C[C@H](c2ccncc2NC(=O)c2ccc(F)c(-c3c(F)ccc(OC[C@@H](O)CO)c3F)n2)C1 [Example 10, N-(4-((1R,3S,5S)-3-amino-5-methylcyclohexyl)pyridin-3-yl)-6-(3-((S)-2,3-dihydroxypropoxy)-2,6-difluorophenyl)-5-fluoropicolinamide]
IC50 [1]: 4.96 nM
IC50 [2]: 0.95 nM
IC50 [3]: 0.03 nM
EC50 [4]: 126 nM

C[C@H]1C[C@@H](c2ccncc2NC(=O)c2ccc(F)c(-c3c(F)cc(O[C@H]4CCCOC4)cc3F)n2)C[C@@H](N)[C@@H]1O [Example 80, N-(4-((1R,3R,4R,5S)-3-amino-4-hydroxy-5-methylcyclohexyl)pyridin-3-yl)-6-(2,6-difluoro-4-((S)-tetrahydro-2H-pyran-3-yloxy)phenyl)-5-fluoropicolinamide]
IC50 [1]: 2.16 nM
IC50 [2]: 0.58 nM
IC50 [3]: 0.02 nM
EC50 [4]: 24 nM

C[C@@H]1C[C@H](N)C[C@H](c2ccncc2NC(=O)c2ccc(F)c(-c3c(F)cc(C4(F)COC4)cc3F)n2)C1 [Example 135, N-(4-((1R,3S,5S)-3-amino-5-methylcyclohexyl)pyridin-3-yl)-6-(2,6-difluoro-4-(3-fluorooxetan-3-yl)phenyl)-5-fluoropicolinamide]
IC50 [1]: 4.54 nM
IC50 [2]: 4.45 nM
IC50 [3]: 0.05 nM
EC50 [4]: 583 nM

C[C@@H]1C[C@H](N)C[C@H](c2ccncc2NC(=O)c2ccc(F)c(-c3c(F)cc(C4(O)CCC4)cc3F)n2)C1 [Example 61, N-(4-((1R,3S,5S)-3-amino-5-methylcyclohexyl)pyridin-3-yl)-6-(2,6-difluoro-4-(1-hydroxycyclobutyl)phenyl)-5-fluoropicolinamide]
IC50 [1]: 1 nM
IC50 [2]: 0.52 nM
IC50 [3]: 0.02 nM
EC50 [4]: 47 nM

C[C@H]1C[C@@H](c2ccncc2NC(=O)c2ccc(F)c(-c3c(F)cc(C4CCS(=O)(=O)CC4)cc3F)n2)C[C@@H](N)[C@@H]1O [Example 203, N-(4-((1R,3R,4R,5S)-3-amino-4-hydroxy-5-methylcyclohexyl)pyridin-3-yl)-6-(4-(1,1-dioxidotetrahydro-2H-thiopyran-4-yl)-2,6-difluorophenyl)-5-fluoropicolinamide]
IC50 [1]: 1.18 nM
IC50 [2]: 0.59 nM
IC50 [3]: 0.02 nM
EC50 [4]: 1490 nM

CCC(=O)c1cc(F)c(-c2nc(C(=O)Nc3cnccc3N3C[C@@H](N)[C@H](O)[C@@H](C)C3)ccc2F)c(F)c1 [Example 104, N-(4-((3R,4R,5S)-3-amino-4-hydroxy-5-methylpiperidin-1-yl)pyridin-3-yl)-6-(2,6-difluoro-4-propionylphenyl)-5-fluoropicolinamide]
IC50 [1]: 0.95 nM
IC50 [2]: 0.45 nM
IC50 [3]: 0.02 nM
EC50 [4]: 19 nM

COCCOc1cc(F)c(-c2nc(C(=O)Nc3cnccc3[C@H]3C[C@@H](N)[C@H](O)[C@@H](C)C3)c(N)cc2F)c(F)c1 [Example 120, 3-amino-N-(4-((1R,3R,4R,5S)-3-amino-4-hydroxy-5-methylcyclohexyl)pyridin-3-yl)-6-(2,6-difluoro-4-(2-methoxyethoxy)phenyl)-5-fluoropicolinamide]
IC50 [1]: 3.78 nM
IC50 [2]: 0.51 nM
IC50 [3]: 0.03 nM
EC50 [4]: 32 nM

C[C@@H]1C[C@H](N)C[C@H](c2ccncc2NC(=O)c2ccc(F)c(-c3c(F)cc(OCC4CCOCC4)cc3F)n2)C1 [Example 177, N-(4-((1R,3S,5S)-3-amino-5-methylcyclohexyl)pyridin-3-yl)-6-(2,6-difluoro-4-((tetrahydro-2H-pyran-4-yl)methoxy)phenyl)-5-fluoropicolinamide]
IC50 [1]: 1.33 nM
IC50 [2]: 0.78 nM
IC50 [3]: 0.02 nM
EC50 [4]: 381 nM

C[C@H]1C[C@@H](c2ccncc2NC(=O)c2ccc(F)c(-c3c(F)cc(OCCO)cc3F)n2)C[C@@H](N)[C@@H]1O [Example 32, N-(4-((1R,3R,4R,5S)-3-amino-4-hydroxy-5-methylcyclohexyl)pyridin-3-yl)-6-(2,6-difluoro-4-(2-hydroxyethoxy)phenyl)-5-fluoropicolinamide]
IC50 [1]: 4.76 nM
IC50 [2]: 1.9 nM
IC50 [3]: 0.06 nM
EC50 [4]: 52 nM

C[C@H]1C[C@@H](c2ccncc2NC(=O)c2ccc(F)c(-c3c(F)cc4c(c3F)OCC[C@@]4(C)O)n2)C[C@@H](N)[C@@H]1O [Example 238, N-(4-((1R,3R,4R,5S)-3-amino-4-hydroxy-5-methylcyclohexyl)pyridin-3-yl)-6-((R)-6,8-difluoro-4-hydroxy-4-methylchroman-7-yl)-5-fluoropicolinamide]
IC50 [1]: 3.15 nM
IC50 [2]: 1.36 nM
IC50 [3]: 0.04 nM
EC50 [4]: 55 nM

C[C@@H]1C[C@H](N)C[C@H](c2ccncc2NC(=O)c2nc(-c3c(F)cc(OC4CCOCC4)cc3F)c(F)cc2N)C1 [Example 86, 3-amino-N-(4-((1R,3S,5S)-3-amino-5-methylcyclohexyl)pyridin-3-yl)-6-(2,6-difluoro-4-(tetrahydro-2H-pyran-4-yloxy)phenyl)-5-fluoropicolinamide]
IC50 [1]: 0.91 nM
IC50 [2]: 0.22 nM
IC50 [3]: 0.01 nM
EC50 [4]: 17 nM

C[C@@H]1C[C@H](N)C[C@H](c2ccncc2NC(=O)c2ccc(F)c(-c3c(F)ccc(OCCO)c3F)n2)C1 [Example 29, N-(4-((1R,3S,5S)-3-amino-5-methylcyclohexyl)pyridin-3-yl)-6-(2,6-difluoro-3-(2-hydroxyethoxy)phenyl)-5-fluoropicolinamide]
IC50 [1]: 2.33 nM
IC50 [2]: 1.08 nM
IC50 [3]: 0.04 nM
EC50 [4]: 64 nM

C[C@@H]1C[C@H](N)C[C@H](c2ccncc2NC(=O)c2ccc(F)c(-c3c(F)cc(OCC(C)(C)O)cc3F)n2)C1 [Example 50, N-(4-((1R,3S,5S)-3-amino-5-methylcyclohexyl)pyridin-3-yl)-6-(2,6-difluoro-4-(2-hydroxy-2-methylpropoxy)phenyl)-5-fluoropicolinamide]
IC50 [1]: 3.28 nM
IC50 [2]: 0.72 nM
IC50 [3]: 0.02 nM
EC50 [4]: 13 nM

C[C@H]1C[C@@H](c2ccncc2NC(=O)c2ccc(F)c(-c3c(F)cc(N4CCOCC4)cc3F)n2)C[C@@H](N)[C@@H]1O [Example 169, N-(4-((1R,3R,4R,5S)-3-amino-4-hydroxy-5-methylcyclohexyl)pyridin-3-yl)-6-(2,6-difluoro-4-morpholinophenyl)-5-fluoropicolinamide]
IC50 [1]: 1.16 nM
IC50 [2]: 0.38 nM
IC50 [3]: 0.01 nM
EC50 [4]: 34 nM

C[C@H]1CN(c2ccncc2NC(=O)c2ccc(F)c(-c3c(F)cc(OCC4CC4)cc3F)n2)C[C@@H](N)[C@@H]1O [Example 92, N-(4-((3R,4R,5S)-3-amino-4-hydroxy-5-methylpiperidin-1-yl)pyridin-3-yl)-6-(4-(cyclopropylmethoxy)-2,6-difluorophenyl)-5-fluoropicolinamide]
IC50 [1]: 0.51 nM
IC50 [2]: 0.09 nM
IC50 [3]: 0.01 nM
EC50 [4]: 34 nM

COCCOc1cc(F)c(-c2nc(C(=O)Nc3cnccc3[C@H]3C[C@@H](N)[C@H](O)[C@@H](C)C3)ccc2F)c(F)c1 [Example 24, N-(4-((1R,3R,4R,5S)-3-amino-4-hydroxy-5-methylcyclohexyl)pyridin-3-yl)-6-(2,6-difluoro-4-(2-methoxyethoxy)phenyl)-5-fluoropicolinamide]
IC50 [1]: 5.57 nM
IC50 [2]: 2.46 nM
IC50 [3]: 0.07 nM
EC50 [4]: 72 nM

C[C@@H]1C[C@H](N)C[C@H](c2ccncc2NC(=O)c2ccc(F)c(-c3c(F)cc(-c4ccnnc4)cc3F)n2)C1 [Example 142, N-(4-((1R,3S,5S)-3-amino-5-methylcyclohexyl)pyridin-3-yl)-6-(2,6-difluoro-4-(pyridazin-4-yl)phenyl)-5-fluoropicolinamide]
IC50 [1]: 28.4 nM
IC50 [2]: 17.8 nM
IC50 [3]: 0.12 nM
EC50 [4]: 1640 nM

CC(C)Oc1cc(F)c(-c2nc(C(=O)Nc3cnccc3N3C[C@@H](N)[C@H](O)[C@@H](C)C3)ccc2F)c(F)c1 [Example 93, N-(4-((3R,4R,5S)-3-amino-4-hydroxy-5-methylpiperidin-1-yl)pyridin-3-yl)-6-(2,6-difluoro-4-isopropoxyphenyl)-5-fluoropicolinamide]
IC50 [1]: 0.78 nM
IC50 [2]: 0.1 nM
IC50 [3]: 0.01 nM
EC50 [4]: 20 nM

CCOCCOc1cc(F)c(-c2nc(C(=O)Nc3cnccc3[C@H]3C[C@@H](N)[C@H](O)[C@@H](C)C3)ccc2F)c(F)c1 [Example 141, N-(4-((1R,3R,4R,5S)-3-amino-4-hydroxy-5-methylcyclohexyl)pyridin-3-yl)-6-(4-(2-ethoxyethoxy)-2,6-difluorophenyl)-5-fluoropicolinamide]
IC50 [1]: 37.4 nM
IC50 [2]: 16 nM
IC50 [3]: 0.45 nM
EC50 [4]: 2510 nM

CSc1cc(F)c(-c2nc(C(=O)Nc3cnccc3N3C[C@@H](N)[C@H](O)[C@@H](C)C3)ccc2F)c(F)c1 [Example 23, N-(4-((3R,4R,5S)-3-amino-4-hydroxy-5-methylpiperidin-1-yl)pyridin-3-yl)-6-(2,6-difluoro-4-(methylthio)phenyl)-5-fluoropicolinamide]
IC50 [1]: 0.96 nM
IC50 [2]: 0.32 nM
IC50 [3]: 0.02 nM
EC50 [4]: 29 nM
